Laboratory results taken from patent US11452731B2, “Method of treating and preventing loss of cognition” (ENDORECHERCHE, INC., priority 2009, dated 2022).
Marks after values point to notes of the source that are not given here.

Tests used:
[1] = 3-month treatment of ovariectomized rats: lumbar spine BMD, total body fat, serum cholesterol, ALP (Example 4, experiment 1); type: in vivo, rat; conditions: OVX rats, 3 months
Method: Ten to twelve week-old female Sprague-Dawley rats (Crl:CD(SD)Br) (Charles River Laboratory, St-Constant, Canada) weighing approximately 220-270 g at start of treatment were used. The animals were acclimatized to the environmental conditions (temperature: 22±3° C.; humidity: 50±20%; 12-h light-12-h dark cycles, lights on at 07:15 h) for at least 1 week before starting the experiments. The animals were housed individually and were allowed free access to tap water and a pelleted certified rodent feed (Lab Diet 5002, Ralston Purina, St-Louis, Mo.). Experiments were conducted in an animal facility approved by the Canadian Council on Animal Care (CCAC) and the Association for Assessment and Accreditation of Laboratory Animal Care (AAALAC) in accordance with the CCAC Guide for Care and Use of Experimental Animals.
On day 1 of the study, the animals of the appropriate groups were bilaterally ovariectomized (OVX) under isoflurane anesthesia. The DHEA was applied topically on the dorsal skin as a solution in 50% ethanol-50% propylene glycol while the other tested compounds were administered as suspension in 0.4% methylcellulose by oral gavage. Treatments were initiated on day 2 of the study and were performed once daily during 3 months.
After 3 months (experiment 1) or 26 weeks (experiment 2) of treatment, individual rats under Isoflurane anesthesia had their whole body skeleton and lumbar spine scanned using dual energy x-ray absorptiometry (DEXA; QDR 4500A, Hologic, Waltham, Mass.) and a Regional High Resolution Scan software. The bone mineral density (BMD) of the lumbar spine (vertebrae L2 to L4) and the total body composition (fat percentage) were determined.
After 3 months (experiment 1) or 26 weeks (experiment 2) of treatment, blood samples were collected at the jugular vein from overnight fasted animals (under Isoflurane anesthesia). Samples were processed for serum preparation and frozen at −80° C. until assay. Serum cholesterol levels and alkaline phospatase activity (ALP) were determined using the Boehringer Mannheim Diagnostic Hitachi 911 Analyzer (Boehringer Mannheim Diagnostic Laboratory Systems).

human Ishikawa cells = assay: Alkaline phosphatase activity in human endometrial adenocarcinoma Ishikawa cells (Example 6); conditions: for IC50 / Emax: Homo sapiens, Ishikawa, 120 h; for IC50: read-out: Inhibition of 1 nM E2-induced stimulation of alkaline phosphatase IC50; for Emax: read-out: Maximal stimulation of alkaline phosphatase % of 1 nM E2 stimulation; for Maximal inhibition of 1 nM E2-induced stimulation of alkaline phosphatase: Ishikawa cells, 5-day incubation
[2] = Uterine and vaginal weight in ovariectomized BALB/c mice treated orally for 9 days with or without estrone (Example 3); type: in vivo; conditions: for inhibition of estrone-stimulated uterine weight / inhibition of vaginal weight (estrone-stimulated): OVX mice + estrone; for stimulation of uterine weight (estrogenic effect) / stimulation of vaginal weight (estrogenic effect): OVX mice, absence of estrone, 10 μg daily (no-effect statements: 1 μg and 10 μg)
Method: Female BALB/c mice (BALB/cAnNCrlBR) weighing 18-20 g were obtained from Charles-River, Inc. (St-Constant, Quebec, Canada) and housed 5 per cage in a temperature (23±1° C.)- and light (12 h light/day, lights on at 7:15)-controlled environment. The mice were fed rodent chow and tap water ad libitum. The animals were ovariectomized (OVX) under Isoflurane anesthesia via bilateral flank incisions and randomly assigned to groups of 10 animals. Ten mice were kept intact as controls.
In the second experiment (Table 6), TSE 424 was administered orally by gavage once daily at doses of 1, 3, 10 or 30 μg/animal for 9 days, starting 2 days after ovariectomy. In both experiments, to evaluate the antiestrogenic activity, treatment with estrone (E1, […], s.c. injection, twice daily) was started 5 days post-ovariectomy and was administered for a 6 day-period. Compounds were dissolved in ethanol (4% final concentration) and administered in 0.4% methylcellulose. Mice in the intact and OVX control groups received the vehicle alone (4% ETOH-0.4% methylcellulose) during the 9-day period. The animals were killed by exsanguination at the abdominal aorta on the 11th morning following ovariectomy. The uteri and vagina were rapidly dissected, weighed, and kept in 10% buffered formalin for further histologic examination.

[3] = test system: ZR-75-1 human breast cancer xenografts; assay: Growth and response of human ZR-75-1 breast tumors in OVX nude mice, 7 antiestrogens for 161 days with or without estrone (Example 8); type: in vivo; conditions: for increase of average tumor size over baseline (agonistic effect) / tumors in the progression category, % / tumors in the progression category, number of total: absence of estrone, 200 μg daily; for increase of average tumor size over baseline (agonistic effect) / progressing tumors, % of tumors / progressing tumors, number of total / tumors in the progression category, % / tumors in the progression category, number of total: 161 days; for average tumor size above pretreatment values: estrone-stimulated, 50 μg oral daily, 23 weeks; for progressing tumors, % of tumors / progressing tumors, number of total: estrone-supplemented, 50 μg daily
Method: ZR-75-1 human breast cancer cells were obtained from the American Type Culture Collection (Rockville, Md.) and cultured in phenol red-free RPMI-1640 medium. […] (Saint-Constant, Québec, Canada). The mice (5 per cage) were housed in vinyl cages equipped with air filter lids, which were kept in laminar airflow hoods and maintained under pathogen-limiting conditions. The photoperiod was 12 hours of light and 12 hours of darkness (lights on at 07:15). Cages, bedding and food (Agway Pro-Lab R-M-H Diet #4018) were autoclaved before use. Water was autoclaved and provided ad libitum. Bilateral ovariectomy was performed under isoflurane-induced anesthesia. […] Randomization and treatments were started one week later. […] The estrone implants were then removed from the animals in the ovariectomized control group (OVX) and in groups that were to receive the antiestrogen alone. […] Tamoxifen was purchased from […]) while toremifene citrate was purchased from Orion (Espoo, Finland). […] The antiestrogen suspensions at the appropriate concentration were prepared each month, stored at 4° C. and used under constant agitation. Powder stock were hermetically stored at 4° C. […] Two perpendicular diameters were recorded and tumor area (mm2) was calculated using the formula: […] Tumor response was assessed at the end of the study or at death of each animal, if it occurred during the course of the experiment. In this case, only data of mice that survived for at least half of the study ([…]) were used in the tumor response analysis.

[4] = Endometrial epithelium thickness in OVX nude mice after 161 days of antiestrogen (Example 8); type: in vivo; conditions: for inhibition of the stimulatory effect of estrone on epithelial height: 50 μg daily oral, estrone stimulation; for height of uterine epithelial cells, % of the OVX control group value: 200 μg daily, absence of estrone
Source text: The 17 groups included two control groups (OVX and OVX+Estrone), seven groups supplemented with an estrone implant and treated with an antiestrogen and eight other groups that received an antiestrogen alone. The estrone implants were then removed from the animals in the ovariectomized control group (OVX) and in groups that were to receive the antiestrogen alone. […] Tamoxifen was purchased from […]) while toremifene citrate was purchased from Orion (Espoo, Finland). […] The antiestrogen suspensions at the appropriate concentration were prepared each month, stored at 4° C. and used under constant agitation. Powder stock were hermetically stored at 4° C. […] After 161 days of treatment, the remaining animals were anesthetized with isoflurane and killed by exsanguination. […] The uteri were prepared to evaluate endometrial thickness by image analysis performed with Image Pro-Plus (Media Cybernetics, Maryland, USA). […] Hematoxylin- and eosin-stained sections of mice uteri were analyzed. […] Mean epithelial cell height was measured in all animals of each group.

[5] = E2 1 mg/kg, EM-652.HCl 2.5 mg/kg, DHEA 80 mg/kg
[6] = OVX + E1, antiestrogen 50 μg daily
[7] = OVX without E1, antiestrogen 200 μg daily

Structure (SMILES): C[C@]12CC[C@@H]3c4ccc(O)cc4CC[C@H]3[C@@H]1CC[C@@H]2O [E2, 17β-estradiol]
- ALP (serum alkaline phosphatase activity) [1]: 59 ± 4 IU/L
- CHOLESTEROL (serum) [1]: 1.37 ± 0.18 mmol/L
- TOTAL FAT [1]: 19.5 ± 2.5 %
- LUMBAR SPINE BMD [1, 5]: 0.2457 ± 0.0049 g/cm^2
- LUMBAR SPINE Prevention of Bone Loss [1, 5]: 98%

Structure (SMILES): COc1ccc(-c2sc3cc(O)ccc3c2Oc2ccc(OCCN3CCCCC3)cc2)cc1.Cl [LY 353381, 6-hydroxy-3-[4-[2-(1-piperidinyl)ethoxy]phenoxyl]-2-(4-methoxyphenyl) benzo [b] thiophene hydrochloride]
- IC50 (human Ishikawa cells): 1.87 ± 0.07 nM
- Emax (human Ishikawa cells): 15.5 ± 0.25%
- Maximal inhibition of 1 nM E2-induced stimulation of alkaline phosphatase (human Ishikawa cells): 90.25 ± 0.127 (2)

Structure (SMILES): Cl.O=C(c1ccc(OCCN2CCCCC2)cc1)c1c(-c2ccc(O)cc2)sc2cc(O)ccc12 [Raloxifene, [2-(4-hydroxyphenyl)-6-hydroxybenzo[b]thien-3-yl] [4-[2-(1-piperidinyl)ethoxy]phenyl]-methanone hydrochloride]
- inhibition of estrone-stimulated uterine weight ([2]; oral 9 days, 1 μg daily): 6%
- inhibition of estrone-stimulated uterine weight ([2]; oral 9 days, 3 μg daily): 14%
- inhibition of estrone-stimulated uterine weight ([2]; oral 9 days, 10 μg daily): 43%
- inhibition of vaginal weight (estrone-stimulated) ([2]; oral 9 days, 10 μg daily): 24%
- stimulation of uterine weight (estrogenic effect) [2]: 85%
- stimulation of vaginal weight (estrogenic effect) [2]: 56%
- increase of average tumor size over baseline (agonistic effect) [3]: did not significantly change
- average tumor size above pretreatment values [3]: 191%
- progressing tumors, % of tumors [3]: 81%
- progressing tumors, number of total [3]: 21 of 26
- inhibition of the stimulatory effect of estrone on epithelial height [4]: 26%
- height of uterine epithelial cells, % of the OVX control group value [4]: 122%
- ENDOMETRIAL EPITHELIUM THICKNESS (μm) ± SEM [4, 6]: 34.72^b,d ± 0.06 μm
- ENDOMETRIAL EPITHELIUM THICKNESS (μm) ± SEM [4, 7]: 22.33^a ± 0.05 μm
- IC50 (human Ishikawa cells): 3.39 ± 0.9 nM
- Emax (human Ishikawa cells): 12.8 ± 1.7%
- Maximal inhibition of 1 nM E2-induced stimulation of alkaline phosphatase (human Ishikawa cells): 94.31 ± 1.74 (5)

Structure (SMILES): CC/C(=C(/c1ccc(OCCN(C)C)cc1)c1cccc(O)c1)c1ccccc1 [Droloxifene, (E)-3-[1-[4-[2-(Dimethylamino)ethoxy]phenyl]-2-phenyl-1-butenyl] phenol]
- increase of average tumor size over baseline (agonistic effect) [3]: did not significantly change
- average tumor size above pretreatment values [3]: 478%
- progressing tumors, % of tumors [3]: 100%
- progressing tumors, number of total [3]: 23 of 23
- inhibition of the stimulatory effect of estrone on epithelial height [4]: 17%
- height of uterine epithelial cells, % of the OVX control group value [4]: 101%
- ENDOMETRIAL EPITHELIUM THICKNESS (μm) ± SEM [4, 6]: 36.71^b,d ± 0.12 μm
- ENDOMETRIAL EPITHELIUM THICKNESS (μm) ± SEM [4, 7]: 18.50 ± 0.07 μm

Structure (SMILES): Oc1ccc2c(c1)CC[C@@H](c1ccccc1)[C@H]2c1ccc(OCCN2CCCC2)cc1 (single isomer, unassigned) [inactive enantiomer of lasofoxifene]
- inhibition of estrone-stimulated uterine weight ([2]; any dose used (1, 3, 10 μg)): no inhibitory effect
- inhibition of vaginal weight (estrone-stimulated) ([2]; any dose used (1, 3, 10 μg)): no inhibitory effect
- stimulation of uterine weight (estrogenic effect) [2]: no stimulatory effect
- stimulation of vaginal weight (estrogenic effect) [2]: no stimulatory effect

Structure (SMILES): CN(C)CCOc1ccc(/C(=C(/CCCl)c2ccccc2)c2ccc(O)cc2)cc1 [OH-Toremifene, (Z)-(2)-2-[4-(4-chloro-1-(4-hydroxyphenyl)-2-phenyl-1-butenyl)phenoxy]-N,N-dimethylethanamine]
- IC50 (human Ishikawa cells): 72.1 ± 7.6 nM
- Emax (human Ishikawa cells): 29.6 ± 2.1%
- Maximal inhibition of 1 nM E2-induced stimulation of alkaline phosphatase (human Ishikawa cells): 75.73 ± 3.52 (3)

Structure (SMILES): CC/C(=C(\c1ccc(I)cc1)c1ccc(OCCN2CCCC2)cc1)c1ccccc1 [Idoxifene, (E)-1-[2-[4-[1-(4-Iodophenyl)-2-phenyl-1-butenyl]phenoxy]ethyl]pyrrolidine]
- increase of average tumor size over baseline (agonistic effect) [3]: 125%
- tumors in the progression category, % [3]: 33%
- tumors in the progression category, number of total [3]: 8 of 24
- average tumor size above pretreatment values [3]: 86%
- progressing tumors, % of tumors [3]: 71%
- progressing tumors, number of total [3]: 20 of 28
- inhibition of the stimulatory effect of estrone on epithelial height [4]: 50%
- height of uterine epithelial cells, % of the OVX control group value [4]: 176%
- ENDOMETRIAL EPITHELIUM THICKNESS (μm) ± SEM [4, 6]: 29.35^b,d ± 0.05 μm
- ENDOMETRIAL EPITHELIUM THICKNESS (μm) ± SEM [4, 7]: 32.14^b,d ± 0.05 μm

Structure (SMILES): CN(C)CCOc1ccc(/C(=C(/CCCl)c2ccccc2)c2ccccc2)cc1 [Toremifene, (Z)-2-[4-(4-Chloro-1,2-diphenyl-1-butenyl)phenoxy]-N,N-dimethylethanamine]
- increase of average tumor size over baseline (agonistic effect) [3]: 86%
- tumors in the progression category, % [3]: 21%
- tumors in the progression category, number of total [3]: 6 of 28
- average tumor size above pretreatment values [3]: 230%
- progressing tumors, % of tumors [3]: 89%
- progressing tumors, number of total [3]: 25 of 28
- inhibition of the stimulatory effect of estrone on epithelial height [4]: 41%
- height of uterine epithelial cells, % of the OVX control group value [4]: 135%
- ENDOMETRIAL EPITHELIUM THICKNESS (μm) ± SEM [4, 6]: 31.47^b,d ± 0.04 μm
- ENDOMETRIAL EPITHELIUM THICKNESS (μm) ± SEM [4, 7]: 24.75^b,c ± 0.04 μm
